Like-named read-outs stand apart in the source and are kept apart here.
Experiments:
Assay type in all cases: cell-based
[1] = system: HCT-116; experiment: MTT tetrazolium microculture growth inhibition, HCT-116; settings: 72 h exposure, read-out: Average growth-inhibitory activity (IC50)
Procedure: (§1) DMC platinum complexes, together with controls cisplatin, carboplatin, and oxaliplatin were screened for an in vitro antitumor activity against various tumorous cell lines, using a tetrazolium microculture assay.
(§2) Drugs: Drugs to be tested were dissolved in a complete medium at twice the highest concentration to be used, followed by filtration (0.22 μm) sterilization. A series of log dilutions were made from each drug solution using complete medium. All drug solutions were prepared 10 minutes before addition to cells.
(§3) In vitro drug exposure: For each drug to be tested, trypsinized cells were adjusted to a concentration of 2×10^5 cells/ml in a complete medium, and 0.1 ml of the cell suspension was added to each of 24 wells in a 96-well microculture plate. The plate was then incubated at a standard condition for 24 hours in order to allow the cells to be adhered to the bottom of the well and restart exponential growth. To each well of the control culture and drug/concentration combinations, 0.1 ml of the complete medium and drug solution were added, respectively. Each drug/concentration combination consisting of four replicates while the control culture consisting of 12 replicates. The twelve replicates of a blank control containing 0.2 ml of the complete medium were set aside to account for the background. The cultures were incubated for additional 72 hours. All tests were repeated at least 3 times on different occasions.
(§4) MTT assay: The MTT (tetrazolium) assay was used to determine the growth-inhibitory effects of different drugs. A 5 mg/ml solution of MTT (3-(4,5-dimethylthiazol-2-yl)-2,5-diphenyltetrazolium bromide) was prepared in phosphate buffer saline (pH 7.4), sterilized by filtration (0.22 μm) and stored at −20° C. To each well, 0.02 ml of an MTT solution was added, and the plate was incubated for 4 hours under standard conditions. The medium in each well was then removed, and 0.1 ml of DMSO (dimethylsulfoxide) was added to each well to solubilize the colored dye produced from the metabolic reduction of MTT. The amount of reduced MTT was measured by spectrophotometric means (570 nm).
(§5) Data analysis: A mean value of OD was determined for all of the 12 control wells. For each concentration of each drug, A mean OD of the 4 wells was determined. All the mean ODs were subtracted from the blank to account for the background. The “Percent of Control” values were determined and plotted.

[2] = system: liver cancer cell line PLC/5; experiment: MTT tetrazolium microculture growth inhibition, PLC/5; settings: for IC50: PLC/5, 72 h exposure, MTT, read-out: Average growth-inhibitory activity (IC50); for activity against liver cancer cell line PLC/5: in words, from Table 5
Procedure: as §1, §2, §3, §4, §5

[3] = system: colorectal cancer cell line Colo320; experiment: MTT tetrazolium microculture growth inhibition, Colo320; settings: for IC50: Colo320, 72 h exposure, MTT, read-out: Average growth-inhibitory activity (IC50); for activity against colorectal cancer cell line Colo320: in words, from Table 5
Procedure: as §1, §2, §3, §4, §5

[4] = system: Huh-7; experiment: MTT tetrazolium microculture growth inhibition, Huh-7; settings: for IC50: Huh-7, 72 h exposure, MTT, read-out: Average growth-inhibitory activity (IC50); for in vitro antitumor activity against Huh-7 cell: in words, from Table 5
Procedure: as §1, §2, §3, §4, §5

[5] = system: SK-Hep; experiment: MTT tetrazolium microculture growth inhibition, SK-Hep; settings: for IC50: SK-Hep, 72 h exposure, MTT, read-out: Average growth-inhibitory activity (IC50); for in vitro antitumor activity against SK-Hep: in words, from Table 5
Procedure: as §1, §2, §3, §4, §5

[6] = system: L1210 resistance; experiment: MTT tetrazolium microculture growth inhibition, L1210 resistance; settings: for resistance / cross-resistance of L1210: L1210 resistance vs L1210; for IC50: L1210 resistance, 72 h exposure, MTT, read-out: Average growth-inhibitory activity (IC50)
Procedure: as §1, §2, §3, §4, §5

[7] = system: HT-29; experiment: MTT tetrazolium microculture growth inhibition, HT-29; settings: 72 h exposure, read-out: Average growth-inhibitory activity (IC50)
Procedure: as §1, §2, §3, §4, §5

[8] = system: SK-Hep resistance; experiment: MTT tetrazolium microculture growth inhibition, SK-Hep resistance; settings: for IC50: SK-Hep resistance, 72 h exposure, MTT, read-out: Average growth-inhibitory activity (IC50); for resistance of SK-Hep to the drug: SK-Hep resistance vs SK-Hep, from IC50 of Table 5
Procedure: as §1, §2, §3, §4, §5

[9] = system: Huh-7 resistance; experiment: MTT tetrazolium microculture growth inhibition, Huh-7 resistance; settings: for cross-resistance of Huh-7: Huh-7 resistance vs Huh-7, within experimental errors; for IC50: Huh-7 resistance, 72 h exposure, MTT, read-out: Average growth-inhibitory activity (IC50); for resistance of Huh-7 to the drug: Huh-7 resistance vs Huh-7, from IC50 of Table 5
Procedure: as §1, §2, §3, §4, §5

[10] = system: L1210; experiment: MTT tetrazolium microculture growth inhibition, L1210; settings: 72 h exposure, read-out: Average growth-inhibitory activity (IC50)
Procedure: as §1, §2, §3, §4, §5

Row | SMILES | IC50 [1] | IC50 [2] | activity against liver cancer cell line PLC/5 [2] | IC50 [3] | activity against colorectal cancer cell line Colo320 [3] | IC50 [4] | in vitro antitumor activity against Huh-7 cell [4] | IC50 [5] | in vitro antitumor activity against SK-Hep [5] | resistance / cross-resistance of L1210 [6] | IC50 [6] | IC50 [7] | IC50 [8] | IC50 [9] | IC50 [10] | also measured
1 | O=C1[O][Pt]2([NH][C@@H]3CCCC[C@H]3[NH]2)[O]C(=O)C2C3CCC(O3)C12 (mixture of isomers) [Trans-DMC platinum complex, Trans-Racemic DMC Platinum Complex] | 0.81 ± 0.29 µM | 4.64 ± 1.01 µM | effective activities | 2.54 ± 0.95 µM | more effective | 4.47 ± 0.79 µM | effective in vitro antitumor activities | 4.27 ± 1.03 µM | effective in vitro antitumor activities | no cross-resistance | 0.17 ± 0.05 µM | 2.09 ± 0.69 µM | 5.01 ± 0.68 µM | 5.99 ± 0.52 µM | 0.14 ± 0.06 µM | cross-resistance of Huh-7 [9]: no cross-resistance
2 | N.N.O=C([O-])C1(C(=O)[O-])CCC1.[Pt+2] [Carboplatin, reference compound] | 69.4 ± 14.7 µM | 80.2 ± 15.8 µM |  | 41.7 ± 5.44 µM |  | 117 ± 9.82 µM |  | 134 ± 10.3 µM |  | high resistance | 126 ± 17.2 µM | 134 ± 15 µM | 358 ± 28 µM | 176 ± 54 µM | 12.8 ± 2.14 µM | resistance of SK-Hep to the drug [8]: about 2.7 fold; resistance of Huh-7 to the drug [9]: 1.5 fold
3 | O=C1[O][Pt]2([NH][C@H]3CCCC[C@H]3[NH]2)[O]C(=O)C2C3CCC(O3)C12 (stereo partly drawn) [Cis-DMC platinum complex] | 12.6 ± 1.67 µM | 17.1 ± 1.18 µM |  | 5.98 ± 0.97 µM |  | 19 ± 1.46 µM |  | 19.4 ± 2.23 µM |  |  |  |  | 22.7 ± 1.11 µM | 17.1 ± 0.77 µM |  | cross-resistance of Huh-7 [9]: no cross-resistance
4 | N.N.[Cl][Pt][Cl] [Cisplatin, reference compound] | 4.14 ± 0.8 µM | 6.92 ± 1.46 µM |  | 2.54 ± 0.48 µM |  | 11.7 ± 1.21 µM |  | 13.5 ± 1.84 µM |  | high resistance | 14 ± 1.49 µM | 12.1 ± 2.25 µM | 51.8 ± 7.01 µM | 25.6 ± 3.5 µM | 0.82 ± 0.14 µM | resistance of SK-Hep to the drug [8]: 4 fold; resistance of Huh-7 to the drug [9]: 1.5 fold
5 | O=C1OC(=O)C2C3CCC(O3)C12 (stereo not shown) [DMC, Demethylcantharidin, reference compound] |  |  |  |  |  |  |  |  |  |  |  |  |  |  |  | IC50 ([1]; Homo sapiens): 23.2 ± 2.06 µM; IC50 ([2]; PLC5): 25.3 ± 1.98 µM; IC50 ([3]; Homo sapiens, COLO 320): 23.9 ± 1.42 µM; IC50 ([4]; Homo sapiens): 32.9 ± 3.68 µM; IC50 ([5]; SKHep): 19 ± 2.01 µM; IC50 ([6]; Mus musculus): 45.5 ± 3.69 µM; IC50 ([7]; Homo sapiens): 32.7 ± 2.57 µM; IC50 ([8]; SKHep): 25.5 ± 1.69 µM; IC50 ([9]; Homo sapiens): 26.9 ± 3.03 µM; IC50 ([10]; Mus musculus): 31.2 ± 1.79 µM
6 | O=C1[O][Pt]2([NH][C@@H]3CCCC[C@H]3[NH]2)[O]C1=O [Oxaliplatin, reference compound] |  | 6.48 ± 3.19 µM |  | 1 ± 0.31 µM |  | 8.97 ± 4.56 µM |  | 9.09 ± 4.24 µM |  |  |  |  |  |  |  | 
7 | O=C1[O][Pt]2([NH][C@@H]3CCCC[C@H]3[NH]2)[O]C(=O)C2C3CCC(O3)C12 (stereo partly drawn) [Trans-R,R(−)-DMC platinum complex, Trans-R,R-(−)-DMC platinum complex] | 0.45 ± 0.27 µM | 3.23 ± 1.13 µM | effective activities | 2.45 ± 0.83 µM | more effective | 3.65 ± 1.1 µM | effective in vitro antitumor activities | 6.63 ± 2.21 µM | effective in vitro antitumor activities | no cross-resistance | 0.99 ± 0.1 µM | 0.92 ± 0.57 µM | 4.7 ± 0.95 µM | 26.9 ± 6.14 µM | 0.76 ± 0.09 µM | 
8 | O=C1[O][Pt]2([NH][C@H]3CCCC[C@@H]3[NH]2)[O]C(=O)C2C3CCC(O3)C12 (stereo partly drawn) [Trans-S,S(+)-DMC platinum complex, Trans-S,S-(+)-DMC platinum complex] | 2.04 ± 0.41 µM | 6.26 ± 1.87 µM | effective activities | 4.96 ± 1.32 µM | more effective | 8.46 ± 1.51 µM | effective in vitro antitumor activities | 6.15 ± 1 µM | effective in vitro antitumor activities | no cross-resistance | 0.12 ± 0.06 µM | 3.07 ± 0.73 µM | 8.09 ± 0.89 µM | 16.2 ± 2.6 µM | 0.11 ± 0.05 µM | 

Reference: US20070293467A1, “Demethyl-Cantharidin Platinum Complex Isomers and Their Use” (priority 2004, published 2007)
